Test results published in PubChem BioAssay (NCI).
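Step 1: Grow cells in 96-well plates. Step 2: Expose to compound for 48 hours at 5 concentrations. Step 3: Interpolate endpoints linearly; if unreached, use highest concentration. TGI: concentration producing complete growth inhibition.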

What was measured:
Test in all cases: DTP human tumour cell line panel, 48 h
[1] = tested on: BT-549 breast
[2] = tested on: CAKI-1 renal
[3] = tested on: HCC-2998 colon
[4] = tested on: HCT-15 colon
[5] = tested on: HL-60(TB) leukemia
[6] = tested on: KM12 colon
[7] = tested on: LOX IMVI melanoma
[8] = tested on: MCF7 breast
[9] = tested on: NCI-H23 lung
[10] = tested on: NCI-H460 lung
[11] = tested on: NCI/ADR-RES ovarian
[12] = tested on: OVCAR-5 ovarian
[13] = tested on: SF-295 CNS
[14] = tested on: SK-MEL-2 melanoma
[15] = tested on: SK-MEL-5 melanoma
[16] = tested on: SNB-75 CNS
[17] = tested on: UO-31 renal
[18] = tested on: SF-268 CNS
[19] = tested on: HS 578T breast

| Structure (SMILES) | TGI [1] [µM] | TGI [2] [µM] | TGI [3] [µM] | TGI [4] [µM] | TGI [5] [µM] | TGI [6] [µM] | TGI [7] [µM] | TGI [8] [µM] | TGI [9] [µM] | TGI [10] [µM] | TGI [11] [µM] | TGI [12] [µM] | TGI [13] [µM] | TGI [14] [µM] | TGI [15] [µM] | TGI [16] [µM] | TGI [17] [µM] | TGI [18] [µM] | TGI [19] [µM] |
| --- | --- | --- | --- | --- | --- | --- | --- | --- | --- | --- | --- | --- | --- | --- | --- | --- | --- | --- | --- |
| CC(C)CC(NC(=O)C(CI)Cc1ccccc1)C(=O)Nc1ccccc1 (stereo not given) | 57 | > 100 | > 100 | > 100 | > 100 | > 100 | > 100 | > 100 | > 100 | > 100 | > 100 | > 100 | > 100 | > 100 | > 100 | > 100 | > 100 | – | – |
| CC(=O)O[C@H]1CCC2[C@@H]3CCC4Nc5oncc5C[C@]4(C)C3CC[C@@]21C (stereo not given in full) | > 10 | > 10 | > 10 | > 10 | 4.58 | > 10 | > 10 | > 10 | > 10 | > 10 | > 10 | > 10 | > 10 | > 10 | > 10 | – | > 10 | > 10 | – |
| CC(=O)O[C@H]1CC[C@@]2(C)C(=CC[C@@H]3[C@@H]2CC[C@]2(C)NC(=O)/C(=C\c4ccccc4)C[C@@H]32)C1 | 34.2 | > 100 | 62 | 40.4 | – | 42.7 | 33.4 | 59.8 | 33.1 | 95.3 | 63.1 | 35 | 37.5 | 39.8 | 23.2 | 44.3 | 33.1 | 37.9 | – |
| Cn1c(=O)oc2cc(C(O)CN3CCN(Cc4ccccn4)CC3)c(Cl)cc21 (stereo not given) | > 100 | > 100 | > 100 | > 100 | > 100 | > 100 | > 100 | > 100 | > 100 | > 100 | > 100 | > 100 | > 100 | – | – | > 100 | > 100 | > 100 | – |
| COc1cc(C(C)=O)cc(C(=O)N(C(C)C)C(C)C)c1[Si](C)(C)C | > 100 | > 100 | – | > 100 | > 100 | > 100 | > 100 | > 100 | > 100 | > 100 | – | – | > 100 | > 100 | > 100 | 56.4 | > 100 | > 100 | > 100 |
| Cc1c(O)c(OC2OC(CO)C(O)C(O)C2O)cc2c1CC[C@@H]1C2(C)C(=O)C[C@]2(C)[C@@H]([C@@](C)(O)C(=O)CCC(C)(C)O)[C@H](O)C[C@@]12C (stereo not given in full) | > 100 | > 100 | > 100 | > 100 | – | > 100 | – | > 100 | > 100 | > 100 | > 100 | > 100 | > 100 | > 100 | > 100 | > 100 | > 100 | > 100 | – |
| Cc1cc(C2CC(O)C(CO)O2)c(F)cc1F (stereo not given) | > 100 | > 100 | > 100 | > 100 | > 100 | > 100 | > 100 | > 100 | > 100 | > 100 | > 100 | > 100 | > 100 | – | – | > 100 | > 100 | > 100 | – |
| Oc1cc(O)cc(-c2nc3cc(F)ccc3s2)c1 | 53.2 | 53.8 | – | 61.6 | – | 52.1 | 39.3 | 64.6 | 94.5 | 54 | > 100 | 57.2 | 36 | 45.1 | 37.1 | – | 76.6 | 50.8 | – |
| COc1cc(N(CCC#N)CCC#N)ccc1/C(N=Nc1ccccc1C)=N\NC(=O)c1ccc(C)cc1 | > 100 | > 100 | > 100 | > 100 | 23 | > 100 | > 100 | – | > 100 | > 100 | > 100 | > 100 | > 100 | > 100 | > 100 | – | > 100 | > 100 | > 100 |
| O=C(O)c1nc2ccc(C(F)(F)F)cc2nc1NCc1ccc(F)cc1 | 90.2 | > 100 | 65.6 | 87.5 | – | > 100 | 36.5 | 68.8 | 79.8 | 63 | > 100 | 42.5 | 81.1 | 45.1 | 35.2 | 94.9 | 7.39 | – | – |
| COC(=O)[C@H](Cc1c[nH]c2ccccc12)NC(=O)c1ccc(CNC(=O)/C(C)=C/c2ccccc2)cc1 | > 100 | > 100 | 73 | > 100 | – | > 100 | > 100 | > 100 | > 100 | > 100 | > 100 | > 100 | > 100 | 27.2 | 33.2 | 32.2 | > 100 | > 100 | – |
